These results are taken from patent US7390411B2, “Method for preparing a compound of interaction of active substances with a porous support using supercritical fluid” (Pierre Fabre Medicament, priority 2001, dated 2008).

SMILES strings stand for the structures. In brackets after ≈: the same amount, converted by molar mass.

What all share (assay type): physicochemical
Data set [1] can be described thus: Dissolution test ketoprofen powders (UV 260 nm). To be noted: water, 37° C. The procedure: Powder Analysis Protocol: Dissolution Test Operating conditions:
UV analysis at a wavelength of 260 nm.
Prepare a standard solution in H2O. Ensure that an absorbance<2 is maintained.
(§1) Execution of the Analysis:
(§2) Dissolve the powder with magnetic stirring using a stirrer bar in a waterbath at 37±0.5° C.
(§3) Withdraw 2 ml of this suspension after 2 hours of stirring and filter it on a 0.45 μm Gelman GHP filter. Carry out the UV analysis, ensuring that the absorbance is less than 2. If it is not, carry out dilution.

Data set [2] is described as follows: Dissolution tests on product F12511 (HPLC, 5% sodium lauryl sulfate, 2 hours). As to the method:
Dissolution Tests on Product F12511
Spectrophotometric detector set at 220 nm.
C8 graft column (Lichrospher 60RP-Select B), dimensions 25×0.4 cm, particle size: 5 μm.
Flow Rate: 1 ml/min Preparation of Solutions: Solution Under Examination
Introduce an amount of complex corresponding to approximately 100 mg of product F12511 into 100 ml of 5% (m/V) sodium lauryl sulfate in H2O. Subject the system to magnetic stirring in a waterbath at 37° C.±0.5° C. Withdraw 2 ml sample of this suspension after 2 hours of stirring and filter it on a Gelman GHP Acrodisc GF (R) filter.
Dilute the samples 1/5 in the mobile phase. Carry out 2 tests.
Introduce 8 mg of reference product F12511 (starting material used to prepare the complex) in a 100 ml flask and dissolve it in 1 ml of tetrahydrofuran (THF). Make up to volume with the mobile phase.
Inject 20 μl of each control solution. Measure the area of the peak of product F12511 and represent its variation as a function of concentration in the form of a graph. The correlation coefficient is>0.995. Inject 20 μl of the test solution. Measure the area of the peak of product F12511 present in the test solution, and ensure that it lies between that of T1 and of T5 in the range.
If this is not the case, perform a dilution in the solubilizing solvent and/or adjust the injection volume of the test solution.
From this, work out the concentration X (μg/ml) of the test solution.
Calculate the amount of dissolved product F12511 in mg/ml by the following formula:
[formula] • Y: injection volume of the test solution • F: dilution factor Measurements of Specific Surface Areas

Data set [3] is described as follows: Measurements of specific surface areas (BET). To be noted: specific surface area. The procedure:
The specific surface area measurements were carried out on a BET ASAP 2010 adsorption apparatus from Micrometrics.
Before the measuring phase, the sample requires a degassing step. This step consists in evacuating the cell containing the sample until a vacuum of at least 0.003 mm Hg, or approximately 0.004 mbar, is reached stably. This degassing is carried out at a temperature of 50° C. (duration: approximately 16 hours).
At the end of degassing, the cell containing the sample is filled with helium and transferred to the measuring station, where evacuation is repeated before analysis.
Processing of the Adsorption Isotherms
The specific surface area was determined in accordance with the BET theory, i.e., in accordance with the following relationship:
[formula] • W: volume of gas adsorbed (under standard temperature and pressure (STP) conditions) per unit mass of sample. • Wm: volume of gas adsorbed (under STP conditions) in a monolayer per unit mass of sample. • P0: saturation pressure. • C: constant.
The isotherm is then plotted as follows:
As a function of P/P0: we then have a straight line of which the slope and the ordinate at the origin give us C and Wm.
The specific surface area is then given by the following formula: a(m^2·g^−1)=NmNAE • E: space occupancy of the nitrogen molecule. For nitrogen at 77 K operating temperature this is generally taken to be E=0.162 nm^2. • NA: Avogadro's number. • Nm: number of moles of nitrogen adsorbed on a monolayer per unit mass of sample, calculated from Wm. The measurements are carried out within a conventional field of relative pressure in which the BET theory is valid, namely 0.05<P/P0<0.2. In order to verify the validity of this theory, one practical means is to look at the direction in which the quantity Nadsorbed. (1-P/P0) changes as a function of P/P0: it should increase continually with P/P0.
Verify the range of applicability of the BET theory in this way, and if necessary readjust the range of relative pressures.

Data set [4] is described as follows: Dissolution test terfenadine powders (UV 259 nm). As to conditions: water, 37° C. The procedure: Powder Analysis Protocol: Dissolution Test Operating Conditions:
UV analysis at a wavelength of 259 nm.
Prepare a standard solution in 1% (m/v) sodium lauryl sulfate in H2O. Ensure that an absorbance<2 is maintained.
as §1, §2, §3

The mark [5] stands for this setting: Comparative Example 1, 2 hours, 5% sodium lauryl sulfate, 37° C.
Where [6] appears, read: Comparative Example 2, dissolution after two hours, 5% sodium lauryl sulfate, 37° C.

As to `CC(C(=O)O)c1cccc(C(=O)c2ccccc2)c1` (stereo not shown) [Ketoprofen], the “concentration after 2 hours of dissolution, Active principle alone” value in data set [1] was found to be 333 µg/mL.
As to `CCCCCCCCCCCCS[C@H](C(=O)Nc1cc(C)c(O)c(C)c1C)c1ccccc1`, the Dissolution stood at 80 µg/mL in data set [2] (Comparative Example 5 (F12511 generated by SAS/ethanol), 2 hours, 5% sodium lauryl sulfate, 37° C.); 57 µg/mL in data set [2] (Comparative Example 6 (F12511 generated by SAS/DMSO), 2 hours, 5% sodium lauryl sulfate, 37° C.); 8 µg/mL in data set [2] (Comparative Example 7 (F12511 generated by RESS), 2 hours, 5% sodium lauryl sulfate, 37° C.).
With `CCCCCCCCCCCCS[C@H](C(=O)Nc1cc(C)c(O)c(C)c1C)c1ccccc1` [F12511 precipitated by SAS], the BET in data set [3] (Comparative Example 1) is given as 54 m^2/g. Besides, the Dissolution in data set [2] (setting [5]) is 62 µg/mL; in data set [2] (summary table, powder after precipitation or coprecipitation only, no molecular diffusion) it was 62 µg/mL.
Turning to `CCCCCCCCCCCCS[C@H](C(=O)Nc1cc(C)c(O)c(C)c1C)c1ccccc1` [Example F12511, (S)-2′,3′,5′-trimethyl-4′-hydroxy-α-dodecylthiophenyl-acetanilide], the BET in data set [3] (Comparative Example 1) and in data set [3] (Comparative Example 2) was 14 m^2/g each time. In addition, the Dissolution in data set [2] (setting [5]) is 6 to 12 µg/mL; in data set [2] (setting [6]), 12 µg/mL; in data set [2] (Comparative Example 3, 2 hours, 5% sodium lauryl sulfate, 37° C.), 12 µg/mL; in data set [2] (Comparative Example 5 (F12511 generated by SAS/ethanol), 2 hours, 5% sodium lauryl sulfate, 37° C., listed as F12511 before precipitation), around 15 µg/mL; in data set [2] (Comparative Example 6 (F12511 generated by SAS/DMSO), 2 hours, 5% sodium lauryl sulfate, 37° C., listed as F12511 before precipitation), 5 µg/mL; in data set [2] (Comparative Example 7 (F12511 generated by RESS), 2 hours, 5% sodium lauryl sulfate, 37° C., listed as F12511 before precipitation), around 10 µg/mL. This molecule registered a Dissolution in data set [2] (Example 4 (coprecipitation SAS/DMSO with γ-cyclodextrin), 2 hours, 5% sodium lauryl sulfate, 37° C.) of around 15 µg/mL. In data set [2] (F12511 alone), the “Dissolution of 2 hours, Active principle alone” value was 12 µg/mL. In data set [2] (after 2 hours, 5% aqueous sodium lauryl sulfate), the “solubility after 2 hours in 5% aqueous sodium lauryl sulfate solution” value stood at 6 µg/mL (≈ 12.8 µM).
Molecule `CCCCCCCCCCCCS[C@H](C(=O)Nc1cc(C)c(O)c(C)c1C)c1ccccc1` [F12511 precipitated by RESS] came in with a BET in data set [3] (Comparative Example 2) of 67 m^2/g. Besides, the Dissolution came to 76 µg/mL in data set [2] (setting [6]) and 76 µg/mL in data set [2] (summary table, powder after precipitation or coprecipitation only, no molecular diffusion, listed as Comp. Ex. 2).
Take `CC(C)(C)c1ccc(C(O)CCCN2CCC(C(O)(c3ccccc3)c3ccccc3)CC2)cc1` (stereo not shown) [Terfenadine]: in data set [4], the “concentration after 2 hours of dissolution, Active principle alone” value was below 1 µg/mL.
